According to PMC8238065, “Prodrug-based nano-delivery strategy to improve the antitumor ability of carboplatin in vivo and in vitro” (Drug Delivery, 2021):

Experiments:
H460 tumor = experiment: In vivo antitumor experiment in H460 tumor-bearing nude mice; details: tail vein injection twice a week for two weeks, CAR 0.75 and 1.5 mg·kg^−1, equivalent PEG-CAR-C16 5.5 and 11.0 mg·kg^−1
Method: The female nude mice models (5–6 weeks old, 18–22 g) used in the experiment were purchased from Unilever (London, UK), and the experiment was conducted in accordance with the principle of protection of experimental animals. To establish animal model of NSCLC, 0.2 mL of H460 cells with concentration density about 1.0 × 10^7/mL were inoculated to the left axilla of the mice. The volume of tumors was measured and recorded using a vernier caliper.
When the average tumor volume of nude mice inoculated with H460 cells grown to about 100 mm^3, the mice were randomly divided into […] (n = 6) including normal saline group (I, NS), CAR group (II, 0.75 mg·kg^−1), equivalent PEG-CAR-C16 group (IV, 5.5 mg·kg^−1), CAR group (III, 1.5 mg·kg^−1), equivalent PEG-CAR-C16 group (V, 11.0 mg·kg^−1). The mice in each group were given drugs by tail vein injection twice a week for two weeks. The volume of tumor was measured every two days and calculated according to the long diameter a and the short diameter b. The tumor inhibition rate is expressed as follows: tumor volume (Vt)=a×b^2/2.

H460 cells = experiment: MTT cytotoxicity, H460 cells; format: cell-based; details: 500 μM, 72 h
Method: The NSCLC A549 and H460 cells were incubated in 1640 medium containing 10% fetal bovine serum albumin, and these cells were stored in a humidified environment of 37 °C and 5% carbon dioxide.
In order to investigate the cytotoxicity of PEG-CAR-C16 micelles, the cell inhibition rates of A549 and H460 cells were determined by the MTT. Primarily, A549 and H460 cell lines were respectively cultured in 1640 culture medium, then transferred into a 96-well plate and incubated for 24 h under the condition of 37 °C, 5% CO2. Then, CAR and PEG-CAR-C16 micelles solution with different concentrations (15–500 μM) were added into the 96-well plate and incubated for 24, 48, and 72 h, respectively. After added with 10 μL of MTT solution to each well, the cells were incubated at 37 °C for 4 h again. Finally, the solution was removed, 100 μL of DMSO was then added to dissolve the produced formazan crystals and the […] were recorded by microplate reader. The cytotoxicity of PEG-CAR-C16 micelles could be expressed by cell inhibition rate.

[1] = In vivo pharmacokinetics of Pt after intravenous injection (ICP-MS); set-up: species or system Wistar rats; details: Pt in rats, equivalent CAR dose 1.5 mg·kg^−1
Method: To conduct the pharmacokinetic tests, six female Wistar rats (Harlan, Israel, 200 ± 20 g) were randomly administered into two groups primarily. The CAR solution was prepared by dissolving CAR in 5% glucose solution, and the PEG-CAR-C16 polymer micelles were prepared by hydrating the thin film using 5% glucose solution during the micelle formation. Then CAR and PEG-CAR-C16 polymer micelles (the equivalent CAR does was 1.5 mg·kg^−1) were injected intravenously. After collected from the treated […] within a specified time point, the blood samples were centrifuged at 3000 rpm for 10 min, and then the centrifuged samples were frozen at −20 °C for further use. All the blood samples were processed by microwave digestion and then the Pt concentration was examined by using inductively coupled plasma mass spectrometry (ICP-MS). The representative pharmacokinetic parameters were calculated by DAS2.0.

Q: Which results are given for `N.N.O=C([O-])C1(C(=O)[O-])CCC1.[Pt+2]` [CAR, Carboplatin]?
A: tumor volume growth / tumor inhibition effect (H460 tumor): could control the growth of tumor volume effectively; cell viability rate (H460 cells): 51.6%; AUC0–∞ [1]: 4.84 ± 1.58 mg·L^–1·h; CL [1]: 0.57 ± 0.11 L·h^–1·kg^–1; MRT0–∞ [1]: 4.72 ± 0.91 h; Vd [1]: 0.66 ± 0.15 L·kg^–1; t1/2 [1]: 1.90 ± 1.91 h
